{"source": "patent US20110003867A1", "about": "“NOVEL 2-ETHYL-METHYL-AMINO-3-AMIDO-6-AMINO-PYRIDINE DERIVATIVES USEFUL AS POTASSIUM CHANNEL ACTIVATORS” (NeuroSearch A/S, priority 2007, published 2011)", "biological_target": "T1, human Kv72+3 channels (Homo sapiens, UniProt O43525+O43526)", "T1 construct": "expressed in transfected cells", "experiment": "Patch-clamp on HEK293 cell lines stably expressing human Kv7.2+3 channels", "assay_type": "cell-based", "conditions": "conc. 0.03 μM, −30 mV, 20 ms; baseline current defined as 100%; HEK293 cells", "source_text": "The effect obtained by these channel activators is described as a percentage increase in baseline current at a given concentration. The baseline current is defined as 100%, and an increase in current is expressed relative to this, i.e. an increase from 1 nA to 1.2 nA is reported as 120%.", "data": [{"molecule": "CCN(C)c1nc(NCc2ccc(F)cc2)ccc1NC(=O)[C@@H]1C[C@H]1c1ccccc1", "note": "(relative stereo) [Compound 6, trans-2-Phenyl-cyclopropanecarboxylic acid [2-Ethylmethylamino-6-(4-fluoro-benzylamino)-pyridin-3-yl]-amide]", "values": [{"measurement": "I^K(%) increase in baseline current", "result": 285, "unit": "%"}]}, {"molecule": "CN(C)c1nc(NCc2ccc(F)cc2)ccc1NC(=O)Cc1cc(F)cc(F)c1", "note": "[Compound 1, N-[2-Dimethylamino-6-(4-fluoro-benzylamino)-pyridin-3-yl]-2-(3,5-difluoro-phenyl)-acetamide]", "values": [{"measurement": "I^K(%) increase in baseline current", "result": 685, "unit": "%"}]}, {"molecule": "CCN(C)c1nc(NCc2ccc(F)cc2)ccc1NC(=O)Cc1ccc(C(F)(F)F)c(F)c1", "note": "[Compound 3, N-[2-Ethylnnethylamino-6-(4-fluoro-benzylamino)-pyridin-3-yl]-2-(3-fluoro-4-trifluoromethyl-phenyl)-acetamide]", "values": [{"measurement": "I^K(%) increase in baseline current", "result": 268, "unit": "%"}]}, {"molecule": "CCN(C)c1nc(NCc2ccc(F)cc2)ccc1NC(=O)CC(C)(C)C", "note": "[Compound 8, N-[2-Ethylmethylamino-6-(4-fluoro-benzylamino)-pyridin-3-yl]-3,3-dimethyl-butyramide]", "values": [{"measurement": "I^K(%) increase in baseline current", "result": 105, "unit": "%"}]}, {"molecule": "CCN(C)c1nc(NCC(C)C)ccc1NC(=O)Cc1cc(F)cc(F)c1", "note": "[Compound 11, 2-(3,5-Difluoro-phenyl)-N-[2-(ethyl-methyl-amino)-6-isobutylamino-pyridin-3-yl]-acetamide]", "values": [{"measurement": "I^K(%) increase in baseline current", "result": 548, "unit": "%"}]}]}
